Laboratory results: patent US5202315A, “Cephalosporin compounds” (Lucky, Ltd., priority 1989, dated 1993)
Values after ≈ are worked out from the molar mass of the structure shown. Like-named read-outs stand apart in the source and are kept apart here.

How the values were obtained:
Test in all cases: Antibacterial activity, MIC
Assay type in all cases: cell-based
[1] = test system: Acinetobacter calcoaceticus ATCC 15473; details: ATCC15473, ATCC 15473, agar two-fold dilution, 37° C., 20 hours, read-out: MIC
Protocol: (§1) Also, the in vitro antibacterial activity was determined by the by a two-fold dilution method as described below:
(§2) That is, the two-fold serial dilutions of the compound were made dispersed in Muller-Hinton agar medium. 2 μl of standard test strain which had the 10^7 CFU per ml was inoculated on the medium, and was incubated at 37° C. for 20 hours.

[2] = test system: Bacillus cereus ATCC 11778; details: ATCC11778, ATCC 11778, agar two-fold dilution, 37° C., 20 hours, read-out: MIC
Protocol: as §1, §2

[3] = test system: Bacillus megaterium ATCC 9885; details: Priestia megaterium, ATCC9885; ATCC 9885; agar two-fold dilution, 37° C., 20 hours; read-out: MIC
Protocol: as §1, §2

[4] = test system: Citrobacter freundii ATCC 8090; details: ATCC8090, ATCC 8090, agar two-fold dilution, 37° C., 20 hours, read-out: MIC
Protocol: as §1, §2

[5] = test system: Enterobacter aerogenes ATCC 29751; details: Klebsiella aerogenes, ATCC29751; ATCC 29751; agar two-fold dilution, 37° C., 20 hours; read-out: MIC
Protocol: as §1, §2

[6] = test system: Enterobacter cloacae ATCC 27508; details: ATCC27508, ATCC 27508, agar two-fold dilution, 37° C., 20 hours, read-out: MIC
Protocol: as §1, §2

[7] = test system: Escherichia coli ATCC 10536; details: ATCC10536, agar two-fold dilution, 37° C., 20 hours
Protocol: as §1, §2

[8] = test system: Escherichia coli ATCC 25922; details: ATCC25922, agar two-fold dilution, 37° C., 20 hours
Protocol: as §1, §2

[9] = test system: Klebsiella pneumoniae ATCC 10031; details: ATCC10031, ATCC 10031, agar two-fold dilution, 37° C., 20 hours, read-out: MIC
Protocol: as §1, §2

[10] = test system: Micrococcus luteus ATCC 9341; details: ATCC9341, ATCC 9341, agar two-fold dilution, 37° C., 20 hours, read-out: MIC
Protocol: as §1, §2

[11] = test system: Morganella morganii ATCC 8076h; details: ATCC8076H, agar two-fold dilution, 37° C., 20 hours
Protocol: as §1, §2

[12] = test system: Proteus mirabilis ATCC 25933; details: ATCC25933, ATCC 25933, agar two-fold dilution, 37° C., 20 hours, read-out: MIC
Protocol: as §1, §2

[13] = test system: Proteus vulgaris ATCC 6059; details: ATCC6059, ATCC 6059, agar two-fold dilution, 37° C., 20 hours, read-out: MIC
Protocol: as §1, §2

[14] = test system: Providencia rettgeri ATCC 9250; details: ATCC9250, agar two-fold dilution, 37° C., 20 hours
Protocol: as §1, §2

[15] = test system: Pseudomonas aeruginosa ATCC 10145; details: ATCC10145, ATCC 10145, agar two-fold dilution, 37° C., 20 hours, read-out: MIC
Protocol: as §1, §2

[16] = test system: Pseudomonas aeruginosa ATCC 25619; details: ATCC25619, ATCC 25619, agar two-fold dilution, 37° C., 20 hours, read-out: MIC
Protocol: as §1, §2

[17] = test system: Pseudomonas aeruginosa ATCC 27853; details: ATCC27853, ATCC 27853, agar two-fold dilution, 37° C., 20 hours, read-out: MIC
Protocol: as §1, §2

[18] = test system: Salmonella typhimurium ATCC 14028; details: Salmonella enterica; ATCC 14028; agar two-fold dilution, 37° C., 20 hours; read-out: MIC
Protocol: as §1, §2

[19] = test system: Serratia marcescens ATCC 27117; details: ATCC27117, ATCC 27117, agar two-fold dilution, 37° C., 20 hours, read-out: MIC
Protocol: as §1, §2

[20] = test system: Shigella flexneri ATCC 11836; details: ATCC11836, agar two-fold dilution, 37° C., 20 hours
Protocol: as §1, §2

[21] = test system: Shigella sonnei ATCC 11060
Protocol: as §1, §2

[22] = test system: Staphylococcus aureus ATCC 10537; details: ATCC10537, ATCC 10537, agar two-fold dilution, 37° C., 20 hours, read-out: MIC
Protocol: as §1, §2

[23] = test system: Staphylococcus aureus ATCC 6538p; details: ATCC6538P, ATCC 6538p, agar two-fold dilution, 37° C., 20 hours, read-out: MIC
Protocol: as §1, §2

[24] = test system: Staphylococcus epidermidis ATCC 12228; details: ATCC12228, ATCC 12228, agar two-fold dilution, 37° C., 20 hours, read-out: MIC
Protocol: as §1, §2

CO/N=C(\C(=O)NC1C(=O)N2C(C(=O)[O-])=C(CSc3nc(N)cc(N)[n+]3C)CSC12)c1csc(N)n1 (stereo not drawn) [Compound I-10]
MIC [1]: 8 µg/mL (≈ 14.5 µM)
MIC [2]: 32 µg/mL (≈ 58 µM)
MIC [3]: 0.25 µg/mL (≈ 0.453 µM)
MIC [4]: 0.063 µg/mL (≈ 0.114 µM)
MIC [5]: 0.5 µg/mL (≈ 0.906 µM)
MIC [6]: ≤ 8 ng/mL
MIC [7]: 0.063 µg/mL (≈ 0.114 µM)
MIC [8]: 0.063 µg/mL (≈ 0.114 µM)
MIC [9]: 0.016 µg/mL (≈ 0.029 µM)
MIC [10]: 0.063 µg/mL (≈ 0.114 µM)
MIC [11]: ≤ 8 ng/mL
MIC [12]: 0.13 µg/mL (≈ 0.236 µM)
MIC [13]: 0.13 µg/mL (≈ 0.236 µM)
MIC [14]: ≤ 8 ng/mL
MIC [15]: 32 µg/mL (≈ 58 µM)
MIC [16]: 2 µg/mL (≈ 3.63 µM)
MIC [17]: 8 µg/mL (≈ 14.5 µM)
MIC [18]: 0.25 µg/mL (≈ 0.453 µM)
MIC [19]: 0.063 µg/mL (≈ 0.114 µM)
MIC [20]: 0.016 µg/mL (≈ 0.029 µM)
MIC ([21]; ATCC11060, ATCC 11060, agar two-fold dilution, 37° C., 20 hours, read-out: MIC): 0.063 µg/mL (≈ 0.114 µM)
MIC [22]: 0.25 µg/mL (≈ 0.453 µM)
MIC [23]: 0.25 µg/mL (≈ 0.453 µM)
MIC [24]: 0.13 µg/mL (≈ 0.236 µM)

CCO/N=C(\C(=O)NC1C(=O)N2C(C(=O)[O-])=C(CSc3nc(N)cc(N)[n+]3C)CSC12)c1csc(N)n1 (stereo not drawn) [Compound I-11]
MIC [1]: 4 µg/mL (≈ 7.07 µM)
MIC [2]: 32 µg/mL (≈ 56.6 µM)
MIC [3]: 0.13 µg/mL (≈ 0.23 µM)
MIC [4]: 0.063 µg/mL (≈ 0.111 µM)
MIC [5]: 0.5 µg/mL (≈ 0.884 µM)
MIC [6]: ≤ 8 ng/mL
MIC [7]: 0.13 µg/mL (≈ 0.23 µM)
MIC [8]: 0.13 µg/mL (≈ 0.23 µM)
MIC [9]: 0.016 µg/mL (≈ 0.0283 µM)
MIC [10]: 0.016 µg/mL (≈ 0.0283 µM)
MIC [11]: ≤ 8 ng/mL
MIC [12]: 0.25 µg/mL (≈ 0.442 µM)
MIC [13]: 0.25 µg/mL (≈ 0.442 µM)
MIC [14]: ≤ 8 ng/mL
MIC [15]: 8 µg/mL (≈ 14.1 µM)
MIC [16]: 2 µg/mL (≈ 3.54 µM)
MIC [17]: 4 µg/mL (≈ 7.07 µM)
MIC [18]: 0.25 µg/mL (≈ 0.442 µM)
MIC [19]: 0.13 µg/mL (≈ 0.23 µM)
MIC [20]: 0.031 µg/mL (≈ 0.0548 µM)
MIC ([21]; ATCC11060, 20 h): 0.13 µg/mL (≈ 0.23 µM)
MIC [22]: 0.25 µg/mL (≈ 0.442 µM)
MIC [23]: 0.25 µg/mL (≈ 0.442 µM)
MIC [24]: 0.063 µg/mL (≈ 0.111 µM)
